According to US20160170302A1, “NOVEL COMPOUND” (TOKYO OHKA KOGYO CO., LTD., priority 2011, published 2016):

Test: Solubility to organic solvents PM and AN
Conditions: for Solubility to Solvent AN: solvent: cyclohexanone (AN); for Solubility to Solvent PM: solvent: propylene glycol monomethyl ether acetate (PM)

## COc1ccc(/C=C/C(=O)n2ccnc2)cc1 [Compound 3]
  Solubility to Solvent AN: >50 mass %
  Solubility to Solvent PM: >50 mass %

## CCN(CC)C(=O)/C(C)=C/c1ccc(OC)cc1[N+](=O)[O-] [Compound 11]
  Solubility to Solvent AN: >50 mass %
  Solubility to Solvent PM: >50 mass %

## COc1ccc(/C=C/C(=O)N2CCCCC2)cc1 [Compound 17]
  Solubility to Solvent AN: >50 mass %
  Solubility to Solvent PM: >50 mass %

## COc1ccc(/C=C(\C)C(=O)N2CCCCC2)c([N+](=O)[O-])c1 [Compound 15]
  Solubility to Solvent AN: >50 mass %
  Solubility to Solvent PM: >50 mass %

## COc1ccc(/C=C/C(=O)n2ccnc2)cc1[N+](=O)[O-] [Compound 6]
  Solubility to Solvent AN: >50 mass %
  Solubility to Solvent PM: >50 mass %

## CCN(CC)C(=O)/C=C/c1ccc(OC)c([N+](=O)[O-])c1 [Compound 10]
  Solubility to Solvent AN: >50 mass %
  Solubility to Solvent PM: >50 mass %

## COc1ccc(/C=C(\C)C(=O)Nc2ccccc2)cc1 [Compound 20]
  Solubility to Solvent AN: >50 mass %
  Solubility to Solvent PM: >50 mass %

## COc1ccc(/C=C/C(=O)N2CCCCC2)c([N+](=O)[O-])c1 [Compound 13]
  Solubility to Solvent AN: >50 mass %
  Solubility to Solvent PM: >50 mass %

## CCN(CC)C(=O)/C(C)=C/c1ccc(OC)cc1 [Compound 19]
  Solubility to Solvent AN: >50 mass %
  Solubility to Solvent PM: >50 mass %

## CCO[Si](C)(CCCN)OCC [Comparative Compound 6, reference compound]
  Solubility to Solvent AN: >50 mass %
  Solubility to Solvent PM: >50 mass %

## COc1ccc(/C=C(\C)C(=O)N2CCCCC2)cc1[N+](=O)[O-] [Compound 16]
  Solubility to Solvent AN: >50 mass %
  Solubility to Solvent PM: >50 mass %

## CCN(CC)C(=O)/C=C/c1ccc(OC)cc1[N+](=O)[O-] [Compound 9]
  Solubility to Solvent AN: >50 mass %
  Solubility to Solvent PM: >50 mass %

## COc1ccc(/C=C/C(=O)N2CCCCC2)cc1[N+](=O)[O-] [Compound 14]
  Solubility to Solvent AN: >50 mass %
  Solubility to Solvent PM: >50 mass %

## COc1ccc(/C=C/C(=O)Nc2ccccc2)cc1 [Compound 2]
  Solubility to Solvent AN: >50 mass %
  Solubility to Solvent PM: >50 mass %

## COc1ccc(/C=C(\C)C(=O)n2ccnc2)cc1 [Compound 18]
  Solubility to Solvent AN: >50 mass %
  Solubility to Solvent PM: >50 mass %

## CCN(CC)C(=O)/C(C)=C/c1ccc(OC)c([N+](=O)[O-])c1 [Compound 12]
  Solubility to Solvent AN: >50 mass %
  Solubility to Solvent PM: >50 mass %

## CCN(CC)C(=O)/C=C/c1ccc(OC)cc1 [Compound 1]
  Solubility to Solvent AN: >50 mass %
  Solubility to Solvent PM: >50 mass %
